Source: PMC8253220, “Molecular design, synthesis and in vitro biological evaluation of thienopyrimidine–hydroxamic acids as chimeric kinase HDAC inhibitors: a challenging approach to combat cancer” (Journal of Enzyme Inhibition and Medicinal Chemistry, 2021)
“And” between values parts separate entries of the source, which are not always exact repeats. Identical values can stand only once.

Experiments:
Assay in all cases: NCI one-dose screen
Type in all cases: cell-based, human
A549/ATCC = details: NSCLC A549/ATCC, 10 µM single dose
Procedure, shortened: (§1)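 One concentration (10 μM) applied to each line of the full NCI-60 panel; percent growth compared against untreated cells.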

ACHN = details: Renal ACHN, 10 µM single dose
Procedure, shortened: as §1

BT-549 = details: Breast BT-549, 10 µM single dose
Procedure, shortened: as §1

CAKI-1 = details: Renal CAKI-1, 10 µM single dose
Procedure, shortened: as §1

CCRF-CEM = details: Leukemia CCRF-CEM, 10 µM single dose
Procedure, shortened: as §1

COLO 205 = details: Colon COLO 205, 10 µM single dose
Procedure, shortened: as §1

DU-145 = details: Prostate DU-145, 10 µM single dose
Procedure, shortened: as §1

EKVX = details: NSCLC EKVX, 10 µM single dose
Procedure, shortened: as §1

HCT-116 = details: Colon HCT-116, 10 µM single dose
Procedure, shortened: as §1

HL-60(TB) = details: Leukemia HL-60(TB), 10 µM single dose
Procedure, shortened: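 At 10 μM, a single concentration, compounds were evaluated for antiproliferative effect in the NCI 60-line screen, with growth expressed relative to untreated control cells.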

HOP-62 = details: NSCLC HOP-62, 10 µM single dose
Procedure, shortened: (§2)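 Single 10 μM dose, NCI-60 panel; read-out = % growth vs untreated controls → % inhibition.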

HS 578T = details: Breast HS 578T, 10 µM single dose
Procedure, shortened: as §1

LOX IMVI = details: Melanoma LOX IMVI, 10 µM single dose
Procedure, shortened: as §1

MALME-3M = details: Melanoma MALME-3M, 10 µM single dose
Procedure, shortened: as §1

MCF7 = details: Breast MCF7, 10 µM single dose
Procedure, shortened: (§3)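 Compounds were tested at a single dose of 10 μM across the full NCI-60 cell line panel. Growth was expressed as percent growth relative to untreated control cells, reported as percent inhibition.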

MDA-MB-231/ATCC = details: Breast MDA-MB-231/ATCC, 10 µM single dose
Procedure, shortened: as §1

MOLT-4 = details: Leukemia MOLT-4, 10 µM single dose
Procedure, shortened: as §3

NCI-H226 = details: for Growth Percent: NSCLC NCI-H226, 10 µM single dose
Procedure, shortened: as §1

NCI-H322M = details: NSCLC NCI-H322M, 10 µM single dose
Procedure, shortened: as §1

NCI-H460 = details: NSCLC NCI-H460, 10 µM single dose
Procedure, shortened: as §1

NCI-H522 = details: NSCLC NCI-H522, 10 µM single dose
Procedure, shortened: as §1

NCI/ADR-RES = details: Ovarian NCI/ADR-RES, 10 µM single dose
Procedure, shortened: as §1

OVCAR-3 = details: Ovarian OVCAR-3, 10 µM single dose
Procedure, shortened: as §1

OVCAR-8 = details: Ovarian OVCAR-8, 10 µM single dose
Procedure, shortened: as §1

PC-3 = details: Prostate PC-3, 10 µM single dose
Procedure, shortened: as §2

RXF 393 = details: Renal RXF 393, 10 µM single dose
Procedure, shortened: as §1

SF-268 = details: CNS SF-268, 10 µM single dose
Procedure, shortened: as §3

SF-295 = details: CNS SF-295, 10 µM single dose
Procedure, shortened: as §1

SF-539 = details: CNS SF-539, 10 µM single dose
Procedure, shortened: as §3

SK-MEL-28 = details: Melanoma SK-MEL-28, 10 µM single dose
Procedure, shortened: as §2

SN12C = details: Renal SN12C, 10 µM single dose
Procedure, shortened: as §1

SNB-19 = details: CNS SNB-19, 10 µM single dose
Procedure, shortened: as §2

SR = details: Leukemia SR, 10 µM single dose
Procedure, shortened: as §1

SW-620 = details: Colon SW-620, 10 µM single dose
Procedure, shortened: as §2

TK-10 = details: Renal TK-10, 10 µM single dose
Procedure, shortened: as §1

U251 = details: CNS U251, 10 µM single dose
Procedure, shortened: as §1

UACC-62 = details: Melanoma UACC-62, 10 µM single dose
Procedure, shortened: as §1

Structure (SMILES) | Growth Percent (A549/ATCC) | Growth Percent (ACHN) | Growth Percent (BT-549) | Growth Percent (CAKI-1) | Growth Percent (CCRF-CEM) | Growth Percent (COLO 205) | Growth Percent (DU-145) | Growth Percent (EKVX) | Growth Percent (HCT-116) | Growth Percent (HL-60(TB)) | Growth Percent (HOP-62) | Growth Percent (HS 578T) | Growth Percent (LOX IMVI) | Growth Percent (MALME-3M) | Growth Percent (MCF7) | Growth Percent (MDA-MB-231/ATCC) | Growth Percent (MOLT-4) | Growth Percent (NCI-H226) | Growth Percent (NCI-H322M) | Growth Percent (NCI-H460) | further results
Cc1c(C(=O)NCCCC(=O)NO)sc2ncnc(Nc3ccccc3)c12 [Compound 20b, N-(4-(hydroxyamino)-4-oxobutyl)-5-methyl-4-(phenylamino)thieno[2,3-d]pyrimidine-6-carboxamide] | 98.8% and 98.87% | 103.8% and 103.87% | 128.8% and 128.88% | 96.9% and 96.93% | 102.7% and 102.73% | 106.5% and 106.57% | 111% and 111.21% | 89.6% and 89.65% | 104.9% and 104.93% | 104.1% and 104.16% | 100.8% and 100.81% | 102.2% and 102.24% | 96.5% and 96.54% | 111.9% and 111.93% | 92.1% and 92.13% | 110.9% and 110.91% | 109.4% and 109.45% | 97.5% and 97.52% | 107.3% and 107.33% | 99.4% and 99.46% | Growth Percent (NCI-H522): 89.7% and 89.77%; Growth Percent (NCI/ADR-RES): 100.6% and 100.67%; Growth Percent (OVCAR-3): 109.4% and 109.49%; Growth Percent (OVCAR-8): 98.7%; Growth Percent (PC-3): 108%; Growth Percent (RXF 393): 98.6% and 98.66%; Growth Percent (SF-268): 97.1% and 97.16%; Growth Percent (SF-295): 90.6% and 90.64%; Growth Percent (SF-539): 96.9% and 96.91%; Growth Percent (SK-MEL-28): 115.5% and 115.55%; Growth Percent (SN12C): 100.3% and 100.34%; Growth Percent (SNB-19): 97.5% and 97.59%; Growth Percent (SR): 99.2% and 99.22%; Growth Percent (SW-620): 102.0% and 102.07%; Growth Percent (TK-10): 111.2% and 111.26%; Growth Percent (U251): 98.2% and 98.23%; Growth Percent (UACC-62): 96.8% and 96.85%
Cc1c(C(=O)NCCCC(=O)NO)sc2ncnc(Nc3ccc(F)c(Cl)c3)c12 [Compound 20d, 4–(3-chloro-4-fluorophenylamino)-N-(4-(hydroxyamino)-4-oxobutyl)-5-methylthieno[2,3-d]pyrimidine-6-carboxamide] | 94.0% and 94.08% | 102.2% and 102.28% | 117.9% and 117.96% | 92.1% and 92.19% | 107.9% and 107.95% | 119.1% and 119.14% | 109.9% and 109.99% | 94.4% and 94.41% | 105.9% and 105.97% | 104.6% and 104.62% | 105.6% and 105.66% | 99.9% and 99.99% | 96.3% | 115.8% and 115.88% | 91.4% and 91.48% | 99.7% and 99.77% | 109.8% and 109.84% | 88.7% and 88.71% | 105.2% and 105.25% | 101.8% and 101.82% | inhibition at 10 µM (NCI-H226; Homo sapiens, NSCLC NCI-H226, 10 μM): 11.3%; Growth Percent (NCI-H522): 92.6% and 92.67%; Growth Percent (NCI/ADR-RES): 104.1% and 104.13%; Growth Percent (OVCAR-3): 108.4% and 108.42%; Growth Percent (OVCAR-8): 99.6% and 99.61%; Growth Percent (PC-3): 105.3% and 105.36%; Growth Percent (RXF 393): 102.5% and 102.57%; Growth Percent (SF-268): 95.2%; Growth Percent (SF-295): 101.9%; Growth Percent (SF-539): 100.8% and 100.82%; Growth Percent (SK-MEL-28): 111.4% and 111.42%; Growth Percent (SN12C): 103.5% and 103.55%; Growth Percent (SNB-19): 98.1% and 98.16%; Growth Percent (SR): 110.0% and 110.02%; Growth Percent (SW-620): 103.1% and 103.17%; Growth Percent (TK-10): 124.1% and 124.14%; Growth Percent (U251): 99.1% and 99.18%; Growth Percent (UACC-62): 93.7% and 93.74%
